Data reported in article PMC2680961, “Homologous desensitization of signalling by the alpha (α) isoform of the human thromboxane A2 receptor: A specific role for nitric oxide signalling” (Biochimica et Biophysica Acta, 2007).
Residue numbers refer to the chain shown, from its start.

Tests used:
TPα^S331A [1] = target: T1, TPα^S331A (Homo sapiens, UniProt P21731, S331A); test: Agonist-mediated TP phosphorylation in whole cells, HEK.TPα^S331A; format: cell-based; conditions: 1 μM U46619 10 min
T1 construct: expressed in transfected cells
T1 sequence (P21731 1-343 S331A): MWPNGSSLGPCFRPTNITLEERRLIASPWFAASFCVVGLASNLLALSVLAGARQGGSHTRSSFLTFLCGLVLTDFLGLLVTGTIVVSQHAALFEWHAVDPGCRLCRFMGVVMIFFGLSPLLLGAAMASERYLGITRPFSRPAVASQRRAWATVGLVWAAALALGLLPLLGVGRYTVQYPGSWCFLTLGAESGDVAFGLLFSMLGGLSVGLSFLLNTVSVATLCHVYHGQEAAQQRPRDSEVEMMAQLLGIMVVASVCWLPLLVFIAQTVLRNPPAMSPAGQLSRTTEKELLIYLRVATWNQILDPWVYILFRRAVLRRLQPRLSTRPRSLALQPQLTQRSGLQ
Experimental: Agonist-mediated TP phosphorylation in whole cells (1.8–2 × 10^6 cells/10 cm dish) was performed essentially as previously described. Briefly, cells were transiently co-transfected with pADVA (10 μg), pCMV:Gαq (25 μg) plus pcDNA:βArrestin2 (25 μg) approximately 48 h prior to labelling. Thereafter, cells were washed once in phosphate-free DMEM, 10% dialysed FBS and were metabolically labelled for 60 min in the same medium (2 ml/10 cm dish) containing 100 μCi/ml [^32P] orthophosphate (8000–9000 Ci/mmol) at 37 °C, 5% CO2. Where appropriate, the PKG kinase inhibitor KT 5823 (50 nM) or its vehicle was added during the labelling period. Thereafter, U46619 (1 μM) or an equivalent volume of vehicle (0.01% ethanol in HBS; 20 μl) were added and cells were incubated for 10 min at 37 °C, 5% CO2. Reactions were terminated by transferring the dishes to ice and aspirating the labelled medium and HA-epitope tagged TP receptors were processed and immunoprecipitated using the anti-HA 101R antibody as previously described. Electroblots were then exposed to Xomat XAR (Kodak) film to detect ^32P-labelled proteins. Thereafter, blots were subject to phosphorimage analysis, and the intensities of agonist-induced phosphorylation were expressed in arbitrary units relative to basal (vehicle-stimulated) levels. In parallel experiments, cells were incubated under identical conditions in the absence of [^32P] orthophosphate; HA-tagged TP receptors were immunoprecipitated from the same cell lines using the anti-HA 101R antibody and immunoblots were screened using the anti-HA 3F10 horseradish peroxidase-conjugated antibody.

TPα^S331A [2] = target: T1, TPα^S331A; test: [3H]SQ29,548 radioligand binding, Scatchard analysis, HEK.TPα^S331A
Experimental: (§1) Cells were harvested by centrifugation at 500×g at 4 °C for 5 min and washed three times with ice-cold Ca^2+/Mg^2+-free phosphate-buffered saline (PBS). TP radioligand binding assays were carried out at 30 °C for 30 min in 100 μl reactions in the presence of 0–40 nM [^3H] […] Protein determinations were carried out using the Bradford assay.
(§2) Radioligand binding and Scatchard analysis data were analysed using GraphPad Prisim V4.0 programme (GraphPad Software Inc., San Diego CA, USA). Statistical analyses were carried out using the unpaired Student's t test using the Statworks Analysis Package. p-values ≤ 0.01 indicated statistically significant differences.

TPα^S329,331A = target: T2, TPα^S329,331A (Homo sapiens, UniProt P21731, S329A/S331A); test: [3H]SQ29,548 radioligand binding, Scatchard analysis, HEK.TPα^S329,331A
T2 construct: expressed in transfected cells
T2 sequence (P21731 1-343 S329A/S331A): T1 sequence (P21731 1-343 S331A) with S329A
Experimental: as §1, §2

TPα^T337,S340A = target: T3, TPα^T337,S340A (Homo sapiens, UniProt P21731, S340A/T337A); test: [3H]SQ29,548 radioligand binding, Scatchard analysis, HEK.TPα^T337,S340A
T3 construct: expressed in transfected cells
T3 sequence (P21731 1-343 T337A/S340A): T1 sequence (P21731 1-343 S331A) with A331S, T337A, S340A
Experimental: as §1, §2

TPα^S331,T337A = target: T4, TPα^S331,T337A (Homo sapiens, UniProt P21731, S331A/T337A); test: [3H]SQ29,548 radioligand binding, Scatchard analysis, HEK.TPα^S331,T337A
T4 construct: expressed in transfected cells
T4 sequence (P21731 1-343 S331A/T337A): T1 sequence (P21731 1-343 S331A) with T337A
Experimental: as §1, §2

TPβ^WT = target: T5, TPβ^WT (Homo sapiens, UniProt P21731); test: [3H]SQ29,548 radioligand binding, Scatchard analysis, HEK.TPβ^WT
T5 construct: expressed in transfected cells
Experimental: as §1, §2

T5 sequence (P21731 1-407 isoform P21731-2): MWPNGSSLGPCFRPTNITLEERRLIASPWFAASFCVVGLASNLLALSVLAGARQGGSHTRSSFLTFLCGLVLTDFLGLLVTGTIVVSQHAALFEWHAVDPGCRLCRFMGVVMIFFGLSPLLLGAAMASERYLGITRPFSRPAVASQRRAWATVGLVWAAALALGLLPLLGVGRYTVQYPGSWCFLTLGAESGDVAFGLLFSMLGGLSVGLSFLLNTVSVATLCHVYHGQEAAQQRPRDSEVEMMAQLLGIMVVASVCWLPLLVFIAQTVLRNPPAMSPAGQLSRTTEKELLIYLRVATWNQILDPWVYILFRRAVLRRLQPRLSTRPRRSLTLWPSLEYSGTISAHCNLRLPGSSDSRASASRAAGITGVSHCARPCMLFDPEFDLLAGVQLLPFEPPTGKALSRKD

Row | SMILES | U46619-mediated TPα^S331A phosphorylation relative to basal (vehicle) (TPα^S331A [1]) [fold] | Bmax (pmol/mg protein ± S.E.M.) (TPα^S331A [2]) [pmol/mg protein] | Bmax (pmol/mg protein ± S.E.M.) (TPα^S329,331A) [pmol/mg protein] | Bmax (pmol/mg protein ± S.E.M.) (TPα^T337,S340A) [pmol/mg protein] | Bmax (pmol/mg protein ± S.E.M.) (TPα^S331,T337A) [pmol/mg protein] | Bmax (pmol/mg protein ± S.E.M.) (TPβ^WT) [pmol/mg protein]
1 | CCCCC[C@H](O)/C=C/[C@@H]1[C@@H](C/C=C\CCCC(=O)O)[C@H]2CO[C@@H]1C2 [U46619] | 2 |  |  |  |  | 
2 | O=C(O)CCC/C=C\C[C@@H]1[C@H](CNNC(=O)Nc2ccccc2)[C@H]2CC[C@@H]1O2 [SQ29,548] |  | 4.00 ± 0.04 | 2.9 ± 0.19 | 4.9 ± 0.04 | 3.23 ± 0.03 | 3.64 ± 0.03
